Source: patent EP3263567A1, “CARBOXAMIDE-SUBSTITUTED PYRAZOLES AND TRI(HETERO)ARYL-PYRAZOLES FOR USE IN METHODS OF TREATING AND / OR PREVENTING CARDIOVASCULAR DISEASES AND / OR COMORBIDITIES THEREOF” (AiCuris Anti-infective Cures GmbH, priority 2016, dated 2018)

Key:
human HCN4 currents = molecular target: T1, human HCN4 currents (Homo sapiens, UniProt Q9Y3Q4); test: Whole-cell patch-clamp, HCN4 steady state currents in transiently transfected CHO cells; format: cell-based; conditions: CHO cells transiently expressing HCN4, steady state current at -120 mV, n=3; read-out: IC50 (inhibition of HCN4 currents)
T1 construct: CHO cells transiently expressing the HCN4 channel; expressed in transfected cells; host or cells: CHO (ATCC CCL-61), transiently transfected
T1 sequence (Q9Y3Q4 1-1203): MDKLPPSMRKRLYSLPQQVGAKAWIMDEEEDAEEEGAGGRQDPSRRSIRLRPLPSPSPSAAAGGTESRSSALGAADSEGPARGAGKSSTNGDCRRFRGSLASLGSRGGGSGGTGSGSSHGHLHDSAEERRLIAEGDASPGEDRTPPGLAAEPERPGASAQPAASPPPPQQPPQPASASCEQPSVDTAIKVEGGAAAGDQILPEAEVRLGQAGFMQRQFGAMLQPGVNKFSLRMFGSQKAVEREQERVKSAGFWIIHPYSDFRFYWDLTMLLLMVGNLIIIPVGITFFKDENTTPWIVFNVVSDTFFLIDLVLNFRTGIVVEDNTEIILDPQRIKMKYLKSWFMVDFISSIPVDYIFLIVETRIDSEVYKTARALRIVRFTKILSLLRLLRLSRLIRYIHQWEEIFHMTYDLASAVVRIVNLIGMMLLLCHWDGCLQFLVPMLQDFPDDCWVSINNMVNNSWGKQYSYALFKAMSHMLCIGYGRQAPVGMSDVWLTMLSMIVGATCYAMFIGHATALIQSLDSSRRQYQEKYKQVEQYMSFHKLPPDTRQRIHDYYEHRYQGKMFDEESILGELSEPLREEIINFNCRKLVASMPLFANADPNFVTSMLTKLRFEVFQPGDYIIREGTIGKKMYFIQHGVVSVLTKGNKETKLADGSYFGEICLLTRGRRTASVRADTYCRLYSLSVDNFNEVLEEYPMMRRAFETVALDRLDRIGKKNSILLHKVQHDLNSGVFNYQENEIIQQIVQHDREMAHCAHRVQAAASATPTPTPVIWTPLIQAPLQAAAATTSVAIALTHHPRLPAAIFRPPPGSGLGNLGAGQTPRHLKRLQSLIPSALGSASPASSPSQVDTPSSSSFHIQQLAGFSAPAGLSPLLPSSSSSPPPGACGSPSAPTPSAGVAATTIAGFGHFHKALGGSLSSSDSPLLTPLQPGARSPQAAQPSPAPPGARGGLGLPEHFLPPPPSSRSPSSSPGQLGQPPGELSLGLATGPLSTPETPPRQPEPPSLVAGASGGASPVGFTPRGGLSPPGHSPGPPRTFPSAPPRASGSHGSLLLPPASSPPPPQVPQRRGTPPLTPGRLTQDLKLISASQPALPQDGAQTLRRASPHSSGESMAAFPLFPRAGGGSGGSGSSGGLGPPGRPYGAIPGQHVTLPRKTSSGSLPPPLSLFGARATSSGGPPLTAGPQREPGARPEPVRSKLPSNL
Excerpt: The following six compounds in accordance with the invention: • Compound A: [drawing 81] i.e. 4-[5-[3-Chloro-5-(trifluoromethoxy) phenyl]-1-(pyridin-3-yl)-1H-pyrazol-3-yl]-5,6-dihydro-7H-pyrrolo[3,4-d]pyrimidin-7-one, • Compound B: [drawing 82] i.e. 4-[5-[3-Chloro-5-(trifluoromethoxy) phenyl]-1-(pyridin-3-yl)-1H-pyrazol-3-yl]-2,3-dihydro-1H-pyrrolo[3,4-c] pyridin-1-one, • Compound C: [drawing 83] i.e. 4-[5-[3-Chloro-5-(trifluoromethoxy) phenyl]-1-(pyridin-3-yl)-1H-pyrazol-3-yl]-5,6-dihydro-2-methyl-7H-pyrrolo[3, 4-d] pyrimidin-7-one, • Compound D: [drawing 84] i.e. 3-Amino-4-[5-[3-chloro-5-(trifluoromethoxy) phenyl]-1-(pyridin-3-yl)-1H-pyrazol-3-yl-carbonyl]-1,5-dihydro-2H-pyrrol-2-one, • Compound E: [drawing 85] i.e. 1-[[5-[3-Chloro-5-(trifluoromethoxy) phenyl]-1-(pyridin-3-yl)-1H-pyrazol-3-yl]carbonyl]-imidazolidin-4-one, • Compound F: [drawing 86] i.e. 4-[5-[3-Chloro-5-(trifluoromethoxy) phenyl]-1-(3-cyano-4-fluoro-phenyl)-1H-pyrazol-3-yl]-5,6-dihydro-7H-pyrrolo[3,4-d]pyrimidin-7-one, were tested on their effects on human HCN4 currents recorded from transiently transfected CHO cells, in direct comparison to the reference compounds described below: • Ivabradine: [drawing 87] i.e. ((S)-3-{3-[([3,4-Dimethoxy-bicyclo [4.2.0]octa-1,3,5-trien-7-yl]methyl)methylamino]propyl}-1,3,4,5-tetrahydro-7,8-dimethoxy-2H-3-benzazepin-2-on), • Compound X: [drawing 88] i.e. 1-[[1-(3-Chloro-4-fluorophenyl)-5-(3-chloro-5-fluorophenyl)-1 H-pyrazol-3-yl]carbonyl]-imidazolidin-4-one, • Compound Y: [drawing 89] i.e. N-(2-Amino-2-oxoethyl)-1-(3-chloro-4-fluorophenyl)-5-(3-chloro-5-fluorophenyl)-1H-pyrazole-3-carboxamide.
The pyrazole compounds X and Y as depicted above, and having structural similarities to the compounds of general formula (I) of the invention, were also tested to investigate whether the pure If current inhibitory effect of the compounds of the invention also extend to structurally closely related compounds.
Dependent on their solubility in the assay buffer, the compounds were tested first at one concentration of 10 µM (compound A, compound Y, compound X, compound B, compound E, compound F and ivabradine) or 1 µM for (compound C and D). If the current blocking of HCN4 at this concentration was higher than 50% the compounds were tested again at five concentrations of a half-logarithmic dilution series starting with either 10 µM or 1 µM as mentioned above (meaning 0.1 µM, 0.3 µM, 1 µM, 3 µM, and 10 µM or 0.01 µM, 0.03 µM 0.1 µM, 0.3 µM and 1 µM).
Test system: CHO cells transiently expressing the HCN4 channel; NCBI Reference Sequence: NP005468.1 (HCN4 channel); Source CHO: ATCC, CCL-61 LGC Standards GmbH, Wesel, Germany were used.
In 35 mm culture dishes CHO cells were seeded at a density allowing single cells to be recorded on the dish holder of the microscope and continuously perfused (at approximately 1 mL/min) with the bath solution described above. All solutions applied to cells including the pipette solution were maintained at room temperature (19 °C - 30 °C). After formation of a Gigaohm seal between the patch electrodes and individual cells (pipette resistance range: 2.0 MΩ - 7.0 MΩ; seal resistance range: > 1 GΩ) the cell membrane across the pipette tip was ruptured to assure electrical access to the cell interior (whole-cell patch-configuration). As soon as a stable seal was established, steady state currents were measured upon the hyperpolarization to -120 mV (2000 ms) from a holding potential of -40 mV. This voltage protocol (as shown in the scheme below) did run 5 times for control conditions and at least ten times for each test concentration. Pulse intervals were 20 s (0.05 Hz). If current amplitude was judged to be too low for measurement, another cell was recorded.
Once control recordings have been accomplished, cells were continuously perfused with bath solution containing the tested compounds as detailed above, 0.1 % DMSO or 100 µM ZD7288. […]

pKa of compound A = format: physicochemical

`O=C1NCc2c1ncnc2-c1cc(-c2cc(Cl)cc(OC(F)(F)F)c2)n(-c2cccnc2)n1` [Compound A, 4-[5-[3-Chloro-5-(trifluoromethoxy)phenyl]-1-(pyridin-3-yl)-1H-pyrazol-3-yl]-5,6-dihydro-7H-pyrrolo[3,4-d]pyrimidin-7-one] showed an IC50 (human HCN4 currents) of 30 to 580 nM and a pKa (pKa of compound A) of 2.3.
